21 compounds from patent US10125098B2, “Therapeutic compounds and methods of use thereof” (GENENTECH, INC., priority 2014, dated 2018) can be followed below.

Where two headings read alike, the source gives them in different places. Where only a bound is given, the exact number is not on record here.

The target in one series is T1, hNav1.7 (Homo sapiens, UniProt Q15858).
T1 construct: expressed in transfected cells
Nature of the series: Tritiated compound binding (LBA) to membranes from cells expressing hNav1.7 and the β1 subunit, competitive binding. As to conditions: competitive binding vs 100 pM [3H]compound, 18 h, room temperature, membranes with hNav1.7 and β1 subunit. In short, it runs like this:
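Competitive displacement of 100 pM [3H]compound (tritiated methyl analogue of formula (I)) from hNav1.7/β1 membranes, 18 h at room temperature in NaCl/Tris pH 7.4 buffer containing 0.01% BSA. 1 μM unlabeled compound set non-specific binding. Bound label quantified by scintillation after filtration; 4-parameter fit gave IC50.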

For a further series, the target named is T2, human NaV1.7 (Homo sapiens, UniProt Q15858).
T2 construct: permanently transfected with an expression vector containing the full-length cDNA coding for the desired human sodium channel α-subunit; expressed in transfected cells; host or cells: HEK-293
As to the kind of experiment: Patch voltage clamp electrophysiology assay (EP), NaV1.7. The format is cell-based. Conditions: HEK-293 cells stably expressing NaV1.7 with β1 subunit; whole-cell patch clamp, membrane potential −60 mV (inactivated state). In short, it runs like this: (§1)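 Percent block is the drop in sodium current after compound wash-on, measured by a test pulse following 20 ms at −150 mV from a −60 mV inactivating holding potential.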
(In patch-clamp work, channel activity is measured electrically.)

Another series addresses T3, NaV1.5 (Homo sapiens, UniProt Q14524).
T3 construct: permanently transfected with an expression vector containing the full-length cDNA coding for the desired human sodium channel α-subunit; expressed in transfected cells; host or cells: HEK-293
Nature of the series: Patch voltage clamp electrophysiology assay (EP), NaV1.5. The format is cell-based. As to conditions: HEK-293 cells stably expressing NaV1.5 with β1 subunit, whole-cell patch clamp, membrane potential −60 mV (inactivated state). An outline of the steps:
as §1

Setting [1] is: human, HEK-293 cells stably expressing human NaV1.5 with β1 subunit, pH 7.4.

T3 sequence (Q14524 whole entry): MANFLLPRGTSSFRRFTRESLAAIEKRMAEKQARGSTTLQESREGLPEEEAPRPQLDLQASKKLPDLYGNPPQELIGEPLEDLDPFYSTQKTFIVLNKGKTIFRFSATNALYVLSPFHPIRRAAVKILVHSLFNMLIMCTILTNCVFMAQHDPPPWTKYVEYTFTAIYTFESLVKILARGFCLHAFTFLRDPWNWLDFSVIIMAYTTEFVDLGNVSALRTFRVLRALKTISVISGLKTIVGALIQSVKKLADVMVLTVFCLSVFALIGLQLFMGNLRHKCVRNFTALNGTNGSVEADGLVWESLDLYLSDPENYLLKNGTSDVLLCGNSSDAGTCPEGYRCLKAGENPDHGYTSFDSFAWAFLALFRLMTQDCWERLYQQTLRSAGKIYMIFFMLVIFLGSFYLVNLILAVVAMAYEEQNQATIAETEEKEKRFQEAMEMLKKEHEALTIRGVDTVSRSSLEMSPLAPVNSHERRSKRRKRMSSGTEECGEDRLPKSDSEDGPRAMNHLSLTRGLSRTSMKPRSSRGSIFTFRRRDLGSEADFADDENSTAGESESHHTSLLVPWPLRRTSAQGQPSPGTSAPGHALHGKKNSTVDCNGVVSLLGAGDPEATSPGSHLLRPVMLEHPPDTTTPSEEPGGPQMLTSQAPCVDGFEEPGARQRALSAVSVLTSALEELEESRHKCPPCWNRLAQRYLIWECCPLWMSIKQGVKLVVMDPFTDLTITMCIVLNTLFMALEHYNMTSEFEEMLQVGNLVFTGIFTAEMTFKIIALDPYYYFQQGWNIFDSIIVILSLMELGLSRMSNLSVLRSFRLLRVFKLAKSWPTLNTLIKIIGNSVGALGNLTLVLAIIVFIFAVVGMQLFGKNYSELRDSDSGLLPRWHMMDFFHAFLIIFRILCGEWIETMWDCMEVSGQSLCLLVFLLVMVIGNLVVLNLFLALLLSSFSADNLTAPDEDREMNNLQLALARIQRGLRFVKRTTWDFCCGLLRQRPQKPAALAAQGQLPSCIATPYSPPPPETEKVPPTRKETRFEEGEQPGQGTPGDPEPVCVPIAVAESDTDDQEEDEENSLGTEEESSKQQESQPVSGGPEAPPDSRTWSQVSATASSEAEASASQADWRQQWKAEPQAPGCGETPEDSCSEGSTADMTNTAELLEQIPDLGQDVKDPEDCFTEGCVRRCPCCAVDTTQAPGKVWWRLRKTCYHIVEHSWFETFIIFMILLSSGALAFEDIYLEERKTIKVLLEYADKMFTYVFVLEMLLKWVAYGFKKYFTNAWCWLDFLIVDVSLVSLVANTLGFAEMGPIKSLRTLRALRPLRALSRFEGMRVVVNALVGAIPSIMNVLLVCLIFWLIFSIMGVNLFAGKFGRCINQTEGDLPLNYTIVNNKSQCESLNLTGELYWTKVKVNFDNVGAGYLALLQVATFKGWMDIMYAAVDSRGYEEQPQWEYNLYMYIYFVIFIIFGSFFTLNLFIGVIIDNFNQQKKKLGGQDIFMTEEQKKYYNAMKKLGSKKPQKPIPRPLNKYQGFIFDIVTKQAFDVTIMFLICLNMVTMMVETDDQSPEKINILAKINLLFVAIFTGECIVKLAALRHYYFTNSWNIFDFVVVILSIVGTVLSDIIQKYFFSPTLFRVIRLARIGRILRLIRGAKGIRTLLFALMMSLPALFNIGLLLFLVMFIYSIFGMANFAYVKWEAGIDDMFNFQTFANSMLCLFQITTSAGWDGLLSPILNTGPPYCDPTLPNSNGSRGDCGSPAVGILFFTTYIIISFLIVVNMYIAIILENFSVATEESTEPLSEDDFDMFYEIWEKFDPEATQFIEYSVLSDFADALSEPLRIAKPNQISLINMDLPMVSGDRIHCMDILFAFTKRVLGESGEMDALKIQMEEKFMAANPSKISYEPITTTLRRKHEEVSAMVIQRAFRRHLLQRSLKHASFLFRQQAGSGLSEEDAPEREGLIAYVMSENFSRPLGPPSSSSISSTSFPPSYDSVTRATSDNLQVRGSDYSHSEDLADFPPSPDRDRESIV
T1 sequence (Q15858 1-1977 isoform Q15858-3): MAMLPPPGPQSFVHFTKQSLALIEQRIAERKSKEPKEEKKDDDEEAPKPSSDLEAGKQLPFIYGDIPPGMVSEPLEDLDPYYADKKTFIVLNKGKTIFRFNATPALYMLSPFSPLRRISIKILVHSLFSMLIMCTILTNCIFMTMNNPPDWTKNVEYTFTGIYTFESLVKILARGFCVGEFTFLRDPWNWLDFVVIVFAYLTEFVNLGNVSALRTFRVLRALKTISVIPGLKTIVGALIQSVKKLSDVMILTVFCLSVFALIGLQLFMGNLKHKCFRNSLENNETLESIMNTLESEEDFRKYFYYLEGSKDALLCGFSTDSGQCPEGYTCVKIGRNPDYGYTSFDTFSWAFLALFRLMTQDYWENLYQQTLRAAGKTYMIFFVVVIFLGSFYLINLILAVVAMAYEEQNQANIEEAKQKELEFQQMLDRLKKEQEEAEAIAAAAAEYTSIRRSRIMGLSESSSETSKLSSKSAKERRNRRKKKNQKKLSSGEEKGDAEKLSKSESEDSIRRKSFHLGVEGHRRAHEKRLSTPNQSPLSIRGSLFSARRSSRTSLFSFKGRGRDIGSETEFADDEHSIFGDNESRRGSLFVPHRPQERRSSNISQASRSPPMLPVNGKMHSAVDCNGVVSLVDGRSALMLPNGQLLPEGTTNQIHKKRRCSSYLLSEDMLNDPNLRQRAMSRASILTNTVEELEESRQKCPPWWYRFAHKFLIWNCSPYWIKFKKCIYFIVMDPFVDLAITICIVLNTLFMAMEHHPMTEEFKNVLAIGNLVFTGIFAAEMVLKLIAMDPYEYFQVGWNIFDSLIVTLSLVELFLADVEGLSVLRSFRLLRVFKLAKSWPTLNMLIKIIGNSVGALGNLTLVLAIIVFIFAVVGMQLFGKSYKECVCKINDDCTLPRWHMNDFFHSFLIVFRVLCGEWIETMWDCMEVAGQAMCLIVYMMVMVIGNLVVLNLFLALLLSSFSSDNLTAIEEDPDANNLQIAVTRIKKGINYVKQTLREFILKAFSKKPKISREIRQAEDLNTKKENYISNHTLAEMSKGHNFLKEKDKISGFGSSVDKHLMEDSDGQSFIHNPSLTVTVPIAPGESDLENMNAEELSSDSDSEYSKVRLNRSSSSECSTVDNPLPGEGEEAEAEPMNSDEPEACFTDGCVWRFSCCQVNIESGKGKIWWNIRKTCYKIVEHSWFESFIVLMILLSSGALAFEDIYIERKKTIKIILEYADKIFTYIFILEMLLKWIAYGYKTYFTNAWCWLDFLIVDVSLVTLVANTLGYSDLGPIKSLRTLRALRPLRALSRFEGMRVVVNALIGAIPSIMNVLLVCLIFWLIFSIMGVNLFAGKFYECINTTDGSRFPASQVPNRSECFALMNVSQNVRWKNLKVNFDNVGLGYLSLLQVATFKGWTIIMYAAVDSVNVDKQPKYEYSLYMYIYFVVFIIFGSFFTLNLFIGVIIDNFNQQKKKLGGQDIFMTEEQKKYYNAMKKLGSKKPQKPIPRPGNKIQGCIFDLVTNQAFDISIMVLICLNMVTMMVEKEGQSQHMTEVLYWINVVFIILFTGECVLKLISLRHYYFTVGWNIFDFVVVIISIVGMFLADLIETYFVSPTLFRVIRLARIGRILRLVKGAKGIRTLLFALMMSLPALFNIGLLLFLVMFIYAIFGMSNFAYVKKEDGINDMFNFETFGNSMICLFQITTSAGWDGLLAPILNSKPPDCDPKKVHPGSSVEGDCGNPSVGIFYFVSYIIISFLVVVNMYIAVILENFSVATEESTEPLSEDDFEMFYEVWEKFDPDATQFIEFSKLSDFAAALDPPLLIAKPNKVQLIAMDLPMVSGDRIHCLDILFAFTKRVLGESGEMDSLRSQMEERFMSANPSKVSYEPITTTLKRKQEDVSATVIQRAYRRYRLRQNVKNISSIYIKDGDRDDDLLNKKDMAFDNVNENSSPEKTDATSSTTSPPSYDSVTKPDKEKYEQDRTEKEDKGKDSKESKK
T1 sequence (Q07699 19-218 partner): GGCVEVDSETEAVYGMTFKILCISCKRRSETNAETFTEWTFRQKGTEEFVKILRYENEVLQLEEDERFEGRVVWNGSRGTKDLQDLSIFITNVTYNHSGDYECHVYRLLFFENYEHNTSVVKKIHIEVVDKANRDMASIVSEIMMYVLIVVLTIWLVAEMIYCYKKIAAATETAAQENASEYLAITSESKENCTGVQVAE
T2 sequence (Q15858 1-1977 isoform Q15858-3): as the sequence (Q15858 1-1977 isoform Q15858-3) above
T2 sequence (Q07699 19-218 partner): as the sequence (Q07699 19-218 partner) above

In the case of `CC(c1cc(Cl)cc(Cl)c1)N1CCC(F)(COc2cc(F)c(C(=O)N3C[C@H](F)C[C@H]3C(=O)O)cc2C2CC2)CC1` (stereo partly drawn) [Example 129, (2S,4R)-1-(5-cyclopropyl-4-((1-(1-(3,5-dichlorophenyl)ethyl)-4-fluoropiperidin-4-yl)methoxy)-2-fluorobenzoyl)-4-fluoropyrrolidine-2-carboxylic acid], the IC50 on hNav1.7 was found to be 0.022 µM; against human NaV1.7 it was 0.16 µM; on NaV1.5 (read-out: Nav1.5) it was 9.4 µM.

For the compound `COC[C@H](c1cc(Cl)cc(Cl)c1)N1CCC(COc2cc(F)c(C(=O)N3C[C@H](F)C[C@H]3C(=O)O)cc2C2CC2)CC1` [Example 130, (2S,4R)-1-(5-cyclopropyl-4-((1-((S)-1-(3,5-dichlorophenyl)-2-methoxyethyl)piperidin-4-yl)methoxy)-2-fluorobenzoyl)-4-fluoropyrrolidine-2-carboxylic acid], the IC50 turned out to be 0.027 µM at hNav1.7, 0.16 µM on human NaV1.7 and 14 µM at NaV1.5 (read-out: Nav1.5).

As to `COC[C@@H](c1cc(Cl)cc(Cl)c1)N1CCC(COc2cc(F)c(C(=O)N3C[C@H](F)C[C@H]3C(=O)O)cc2C2CC2)CC1` [Example 131, (2S,4R)-1-(5-cyclopropyl-4-((1-((R)-1-(3,5-dichlorophenyl)-2-methoxyethyl)piperidin-4-yl)methoxy)-2-fluorobenzoyl)-4-fluoropyrrolidine-2-carboxylic acid], the IC50 on hNav1.7 came to 0.028 µM; on human NaV1.7, 0.25 µM; on NaV1.5 (read-out: Nav1.5) it was 18 µM.

For the compound `O=C(O)[C@@H]1COC(=O)N1C(=O)c1cc(C2CC2)c(OCC23CC4CC(CC(C4)C2)C3)cc1F` [Example 133, (S)-3-(4-(adamantan-1-ylmethoxy)-5-cyclopropyl-2-fluorobenzoyl)-2-oxooxazolidine-4-carboxylic acid], the IC50 on hNav1.7 amounted to 1.4 µM; against human NaV1.7, 18 µM; at NaV1.5 (read-out: Nav1.5), 9.4 µM.

As for `O=C(O)[C@@H]1CCCN1C(=O)c1cc(C2CC2)c(COc2cc(Cl)cc(Cl)c2)s1` [Example 134, (S)-1-(4-cyclopropyl-5-((3,5-dichlorophenoxy)methyl)thiophene-2-carbonyl)pyrrolidine-2-carboxylic acid], the IC50 on hNav1.7 is 0.072 µM; against human NaV1.7, 0.63 µM; on NaV1.5 (read-out: Nav1.5) it was 7.1 µM.

In the case of `C[C@]1(COc2cc(F)c(C(=O)N3CCC[C@H]3C(=O)O)cc2C2CC2)CCN(c2cc(C(F)(F)F)c(Cl)cn2)C1` [Example 135, (S)-1-(4-(((S)-1-(5-chloro-4-(trifluoromethyl)pyridin-2-yl)-3-methylpyrrolidin-3-yl)methoxy)-5-cyclopropyl-2-fluorobenzoyl)pyrrolidine-2-carboxylic acid], the IC50 at hNav1.7 is 0.39 µM; on human NaV1.7, 2.6 µM; on NaV1.5 (setting [1]), no less than 30 µM.

`C[C@@]1(COc2cc(F)c(C(=O)N3CCC[C@H]3C(=O)O)cc2C2CC2)CCN(c2cc(C(F)(F)F)c(Cl)cn2)C1` [Example 136, (S)-1-(4-(((R)-1-(5-chloro-4-(trifluoromethyl)pyridin-2-yl)-3-methylpyrrolidin-3-yl)methoxy)-5-cyclopropyl-2-fluorobenzoyl)pyrrolidine-2-carboxylic acid]: the IC50 on hNav1.7 was 0.11 µM; against human NaV1.7 it was 1.1 µM; against NaV1.5 (setting [1]), no less than 30 µM.

Take `O=C(O)[C@@H]1CCCN1C(=O)c1cc(C2CC2)c(OC2CN(C(c3ccccc3)c3ccccc3)C2)cc1F` [Example 141, (S)-1-(4-(1-benzhydrylazetidin-3-yloxy)-5-cyclopropyl-2-fluorobenzoyl)pyrrolidine-2-carboxylic acid]: the IC50 at hNav1.7 was 0.49 µM; against human NaV1.7, 6.1 µM; against NaV1.5 (setting [1]), no less than 30 µM.

Take `C[C@@H]1SCN(C(=O)c2cc(C3CC3)c(OCC34CC5CC(CC(C5)C3)C4)cc2F)[C@@H]1C(=O)O` [Example 142a, (4R,5S)-3-[4-(1-adamantylmethoxy)-5-cyclopropyl-2-fluoro-benzoyl]-5-methyl-thiazolidine-4-carboxylic acid]: the IC50 on hNav1.7 worked out at 0.25 µM; on human NaV1.7, 1.5 µM; at NaV1.5 (read-out: Nav1.5), 17 µM.

Take `C[C@@H]1SCN(C(=O)c2cc(C3CC3)c(OCC34CC5CC(CC(C5)C3)C4)cc2F)[C@H]1C(=O)O` [Example 142b, (4S,5S)-3-[4-(1-adamantylmethoxy)-5-cyclopropyl-2-fluoro-benzoyl]-5-methyl-thiazolidine-4-carboxylic acid]: the results for the IC50 on hNav1.7, on human NaV1.7 and on NaV1.5 (read-out: Nav1.5) were 0.76 µM, 3 µM and 15 µM, respectively.

For `O=C(O)[C@@H]1CS(=O)(=O)CN1C(=O)c1cc(C2CC2)c(OCC23CC4CC(CC(C4)C2)C3)cc1F` [Example 143, (4R)-3-[4-(1-adamantylmethoxy)-5-cyclopropyl-2-fluoro-benzoyl]-1,1-dioxo-1,3-thiazolidine-4-carboxylic acid], the IC50 was 0.17 µM at hNav1.7, 1.2 µM against human NaV1.7 and 21 µM at NaV1.5 (read-out: Nav1.5).

`N#C[C@H]1C[C@@H](C(=O)O)N(C(=O)c2cc(C3CC3)c(OCC34CC5CC(CC(C5)C3)C4)cc2F)C1` [Example 144, (2S,4S)-1-[4-(1-adamantylmethoxy)-5-cyclopropyl-2-fluoro-benzoyl]-4-cyano-pyrrolidine-2-carboxylic acid]: the IC50 on hNav1.7 is 0.87 µM; against human NaV1.7, 3.5 µM; against NaV1.5 (setting [1]), no less than 30 µM.

With `O=C(O)[C@@H]1CC(F)(F)CN1C(=O)c1cc(C2CC2)c(OCC23CC4CC(CC(C4)C2)C3)cc1F` [Example 145, (2S)-1-[4-(1-adamantylmethoxy)-5-cyclopropyl-2-fluoro-benzoyl]-4,4-difluoro-pyrrolidine-2-carboxylic acid], the results for the IC50 at hNav1.7, at human NaV1.7 and on NaV1.5 (read-out: Nav1.5) were 0.035 µM, 0.64 µM and 16 µM, respectively.

For the compound `O=C(O)[C@@H]1[C@H]2CC[C@H](C2)N1C(=O)c1cc(C2CC2)c(OCC23CC4CC(CC(C4)C2)C3)cc1F` [Example 146, (1S,2S,4R)-3-[4-(1-adamantylmethoxy)-5-cyclopropyl-2-fluoro-benzoyl]-3-azabicyclo[2.2.1]heptane-2-carboxylic acid], the IC50 at hNav1.7 came to 0.18 µM; against human NaV1.7, 1.5 µM; on NaV1.5 (read-out: Nav1.5), 8.4 µM.

As to `CC1(C)CCC(C(=O)O)N1C(=O)c1cc(C2CC2)c(OCC23CC4CC(CC(C4)C2)C3)cc1F` (stereo not drawn) [Example 147, 1-[4-(1-adamantylmethoxy)-5-cyclopropyl-2-fluoro-benzoyl]-5,5-dimethyl-pyrrolidine-2-carboxylic acid], the IC50 on hNav1.7 came to 0.26 µM; at human NaV1.7, 2.1 µM; at NaV1.5 (read-out: Nav1.5), 14 µM.

Turning to `C[C@H]1C[C@@H](C(=O)O)N(C(=O)c2cc(C3CC3)c(OCC34CC5CC(CC(C5)C3)C4)cc2F)C1` [Example 148, (2S,4S)-1-[4-(1-adamantylmethoxy)-5-cyclopropyl-2-fluoro-benzoyl]-4-methyl-pyrrolidine-2-carboxylic acid], the IC50 at hNav1.7 amounted to 0.049 µM; against human NaV1.7, 0.62 µM; on NaV1.5 (read-out: Nav1.5), 17 µM.

Consider `C[C@H]1CCN(C(=O)c2cc(C3CC3)c(OCC34CC5CC(CC(C5)C3)C4)cc2F)[C@@H]1C(=O)O` [Example 149, (2S,3S)-1-[4-(1-adamantylmethoxy)-5-cyclopropyl-2-fluoro-benzoyl]-3-methyl-pyrrolidine-2-carboxylic acid], for which the IC50 on hNav1.7 was 0.01 µM; against human NaV1.7, 0.3 µM; at NaV1.5 (read-out: Nav1.5), 17 µM.

Consider `C[C@@H]1C[C@@H](C(=O)O)N(C(=O)c2cc(C3CC3)c(OCC34CC5CC(CC(C5)C3)C4)cc2F)C1` [Example 150, (2S,4R)-1-[4-(1-adamantylmethoxy)-5-cyclopropyl-2-fluoro-benzoyl]-4-methyl-pyrrolidine-2-carboxylic acid], for which the IC50 at hNav1.7 stood at 0.085 µM; against human NaV1.7, 1.2 µM; at NaV1.5 (read-out: Nav1.5), 19 µM.

With `CC1(C)SCN(C(=O)c2cc(C3CC3)c(OCC34CC5CC(CC(C5)C3)C4)cc2F)[C@@H]1C(=O)O` [Example 155, (4R)-3-[4-(1-adamantylmethoxy)-5-cyclopropyl-2-fluoro-benzoyl]-5,5-dimethyl-thiazolidine-4-carboxylic acid], the results for the IC50 on hNav1.7, on human NaV1.7 and on NaV1.5 (read-out: Nav1.5) were 0.068 µM, 0.9 µM and 9.3 µM, respectively.

`C[C@@H](c1cc(Cl)cc(Cl)c1)N1CCC(COc2cc(F)c(C(=O)N3[C@@H]4C[C@@H]4C[C@H]3C(=O)O)cc2C2CC2)CC1` [Example 156, (1R,3S,5R)-4-[5-cyclopropyl-4-[[1-[(1S)-1-(3,5-dichlorophenyl)ethyl]-4-piperidyl]methoxy]-2-fluoro-benzoyl]-4-azabicyclo[3.1.0]hexane-3-carboxylic acid]: the IC50 on hNav1.7 came out at 0.83 µM; at human NaV1.7 it was 3.1 µM; at NaV1.5 (read-out: Nav1.5), 17 µM.

`C[C@@H](c1cc(Cl)cc(Cl)c1)N1CCC(COc2cc(F)c(C(=O)N3CSC[C@H]3C(=O)O)cc2C2CC2)CC1` [Example 159, (4R)-3-[5-cyclopropyl-4-[[1-[(1S)-1-(3,5-dichlorophenyl)ethyl]-4-piperidyl]methoxy]-2-fluoro-benzoyl]thiazolidine-4-carboxylic acid]: the IC50 is 0.08 µM at hNav1.7, 1 µM against human NaV1.7 and 17 µM on NaV1.5 (read-out: Nav1.5).
